Earlier results, collected in publication PMC8609999, “A Phase I trial of talazoparib in patients with advanced hematologic malignancies” (International Journal of Hematologic Oncology, 2021).

System: CLL or MCL patients
Set-up: method as in PMID 28643365
Settings: not statistically significant; cited from earlier work

SMILES: O=C(c1cc(Cc2n[nH]c(=O)c3ccccc23)ccc1F)N1CCN(C(=O)C2CC2)CC1 [olaparib]
- Overall survival in patients with ATM mutations versus those without: trend towards improved overall survival
